Data on 21 molecules can be found in US12281057B2 (VERTEX PHARMACEUTICALS INCORPORATED, priority 2017, dated 2025).

Each structure is given as a SMILES string.

In one test the target is truncated form of human NaV 1.8 with full channel activity (Homo sapiens, UniProt Q9Y5Y9). Kind of test: E-VIPR Assay Method A for detecting and measuring Nav inhibition (HEK cells, membrane potential FRET dyes, electrical stimulation). The class given is cell-based. Particulars: HEK cells expressing human NaV 1.8, HS (human serum) in compound loading buffer, 11 point dose response, top dose 3 μM, Table 20, read-out: Nav 1.8 MedChem Optical Assay EVIPR Assay Method A HS IC50. An excerpt: E-VIPR Assay Method A for Detecting and Measuring Nav Inhibition Properties Sodium ion channels are voltage-dependent proteins that can be activated by inducing membrane voltage changes by applying electric fields. The electrical stimulation instrument and methods of use, referred to as E-VIPR, are described in International Publication No. WO 2002/008748 A3 and C.-J. Huang et al. Characterization of voltage-gated sodium channel blockers by electrical stimulation and fluorescence detection of membrane potential, 24 Nature Biotech. 439-46 (2006), both of which are incorporated by reference in their entirety. The instrument comprises a microtiter plate handler, an optical system for exciting the coumarin dye while simultaneously recording the coumarin and oxonol emissions, a waveform generator, a current- or voltage-controlled amplifier, and parallel electrode pairs that are inserted into assay plate wells. Under integrated computer control, this instrument passes user-programmed electrical stimulus protocols to cells within the wells of the microtiter plate. […] Sigma #F4135), 1% NEAA (Non-Essential Amino Acids, Life Tech #11140), 1% HEPES (Life Tech #15630), 1% Pen-Strep (Penicillin-Streptomycin; […] Cells were expanded in vented cap flasks, with 95% humidity and 5% CO2. Reagents and Stock Solutions: • 100 mg/mL Pluronic F-127 (Sigma #P2443), in dry DMSO • Compound Plates: […] 5% KIR 2.1 Bacmam virus (produced in-house), prepared as described in Section 3.3 of J. A. […] The solution was made by adding 10% Pluronic F127 stock equal to combined volumes of CC2-DMPE and DiSBAC6(3). The order of preparation was first mix Pluronic and CC2-DMPE, then add DiSBAC6(3), then while vortexing add Bath1/β-Cyclodextrin. […] Assay Protocol: […] Final DMSO concentration for all wells in the assay was 0.625% (0.75% DMSO was supplemented to the Compound Loading Buffer for a final DMSO concentration of 0.625%). […] 3) Cell plates were prepared. On the day of the assay, the media was aspirated, and the cells were washed three times with 80 μL of Bath-1 buffer, maintaining 25 μL residual volume in each well. 4) 25 μL per well of Hexyl Dye Solution was dispensed into the cell plates. The cells were incubated for 20 minutes at room temp or ambient conditions in darkness. 5) 80 μL per well of Compound Loading Buffer was dispensed into compound plates. 6) The cell plates were washed three times with 80 μL per well of Bath-1 Buffer, leaving 25 µL of residual volume. Then 25 uL per well from compound plate was transferred to each cell plate. The mixture was incubated for 30 minutes at room temp/ambient conditions. 7) The plate was read on E-VIPR using the current-controlled amplifier to deliver stimulation wave pulses using the following protocol: 1.25 Amps, 2.5 ms pulse width biphasic waveform, 10 Hz for 10 seconds at a scan rate of 200 Hz. A pre-stimulus recording was performed for 0.5 seconds to obtain the un-stimulated intensities baseline. The stimulatory waveform was followed by 0.5 seconds of post-stimulation recording to examine the relaxation to the resting state. Data Analysis: Data were analyzed and reported as normalized ratios of emission intensities measured in the 460 nm and 580 nm channels. The response as a function of time was reported as the ratios obtained using the following formula: […] The data were further reduced by calculating the initial (Ri) and final (Rf) ratios. These were the average ratio values during part or all of the pre-stimulation period and during sample points during the stimulation period. The fluorescence ratio (Rf/Ri) was then calculated and reported as a function of time. Control responses were obtained by performing assays in the presence of the positive control, and in the absence of pharmacological agents (DMSO vehicle negative control). Responses to the negative (N) and positive (P) controls were calculated as above. The compound antagonist % activity A was then defined as: [formula] where X is the ratio response of the test compound. […]
truncated form of human NaV 1.8 with full channel activity, sequence (Q9Y5Y9 126-1722 limits assumed): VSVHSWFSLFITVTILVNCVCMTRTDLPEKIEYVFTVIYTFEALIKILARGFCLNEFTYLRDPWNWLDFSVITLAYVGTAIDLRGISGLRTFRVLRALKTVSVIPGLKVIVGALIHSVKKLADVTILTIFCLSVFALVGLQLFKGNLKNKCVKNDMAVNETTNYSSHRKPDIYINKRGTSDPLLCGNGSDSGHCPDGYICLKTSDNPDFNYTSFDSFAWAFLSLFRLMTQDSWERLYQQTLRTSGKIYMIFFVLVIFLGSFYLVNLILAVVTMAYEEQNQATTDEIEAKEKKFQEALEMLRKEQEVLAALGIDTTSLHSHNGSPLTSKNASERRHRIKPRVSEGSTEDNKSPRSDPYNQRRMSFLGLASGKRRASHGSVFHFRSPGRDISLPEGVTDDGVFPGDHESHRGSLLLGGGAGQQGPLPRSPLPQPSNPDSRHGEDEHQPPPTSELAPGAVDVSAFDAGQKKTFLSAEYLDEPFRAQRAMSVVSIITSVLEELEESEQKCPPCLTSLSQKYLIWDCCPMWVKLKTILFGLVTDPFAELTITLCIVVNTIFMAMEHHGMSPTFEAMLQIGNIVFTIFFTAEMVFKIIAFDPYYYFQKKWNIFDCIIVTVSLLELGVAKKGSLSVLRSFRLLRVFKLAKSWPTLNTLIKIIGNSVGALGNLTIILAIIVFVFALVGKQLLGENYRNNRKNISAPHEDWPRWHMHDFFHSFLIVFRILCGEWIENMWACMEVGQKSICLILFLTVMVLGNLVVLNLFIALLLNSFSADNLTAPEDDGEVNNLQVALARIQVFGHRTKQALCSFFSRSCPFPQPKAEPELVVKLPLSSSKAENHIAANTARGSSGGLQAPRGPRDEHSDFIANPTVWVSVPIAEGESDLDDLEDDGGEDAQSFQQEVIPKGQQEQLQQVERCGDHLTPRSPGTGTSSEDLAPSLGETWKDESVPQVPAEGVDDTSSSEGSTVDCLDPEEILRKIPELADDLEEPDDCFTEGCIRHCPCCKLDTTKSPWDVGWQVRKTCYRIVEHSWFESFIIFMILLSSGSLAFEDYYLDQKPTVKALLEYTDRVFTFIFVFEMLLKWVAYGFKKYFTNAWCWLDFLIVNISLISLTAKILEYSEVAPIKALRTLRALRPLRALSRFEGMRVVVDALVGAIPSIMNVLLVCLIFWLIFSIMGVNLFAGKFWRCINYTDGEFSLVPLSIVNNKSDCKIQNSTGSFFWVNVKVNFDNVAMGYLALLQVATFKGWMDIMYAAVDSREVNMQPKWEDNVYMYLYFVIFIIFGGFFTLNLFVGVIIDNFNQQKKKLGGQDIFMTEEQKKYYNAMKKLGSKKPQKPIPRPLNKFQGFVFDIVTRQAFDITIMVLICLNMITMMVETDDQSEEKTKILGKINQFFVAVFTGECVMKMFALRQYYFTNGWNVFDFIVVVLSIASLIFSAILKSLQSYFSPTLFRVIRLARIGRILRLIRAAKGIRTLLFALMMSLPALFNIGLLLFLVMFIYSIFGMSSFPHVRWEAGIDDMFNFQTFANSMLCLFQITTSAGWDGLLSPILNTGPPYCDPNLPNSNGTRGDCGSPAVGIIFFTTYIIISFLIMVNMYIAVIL
For `NC(=O)c1cc(NC(=O)c2c(Oc3ccc(OC(F)(F)F)cc3Cl)ccc(C(F)(F)F)c2F)ccc1F` [Compound 9, N-(3-carbamoyl-4-fluoro-phenyl)-6-[2-chloro-4-(trifluoromethoxy)phenoxy]-2-fluoro-3-(trifluoromethyl)benzamide], the half-maximal inhibitory concentration (IC50) is 0.003 µM.

Staying with this test, now noted: HEK cells expressing human NaV 1.8, HS (human serum) in compound loading buffer, 11 point dose response, top dose 3 μM, Table 20A, read-out: Nav 1.8 MedChem Optical Assay EVIPR Assay Method A HS IC50.
On to `COc1cc(OC(F)(F)F)ccc1Oc1cc(C2CC2)c(C(F)(F)F)cc1C(=O)Nc1ccnc(C(N)=O)c1` [Compound 125, 4-[[4-Cyclopropyl-2-[2-methoxy-4-(trifluoromethoxy)phenoxy]-5-(trifluoromethyl)benzoyl]amino]pyridine-2-carboxamide], for which the IC50 came out at 0.034 µM.
`NC(=O)c1cc(NC(=O)c2c(Oc3ccc(OC(F)(F)F)cc3)cccc2C(F)(F)F)ccc1F` [Compound 39, N-(3-Carbamoyl-4-fluoro-phenyl)-2-[4-(trifluoromethoxy)phenoxy]-6-(trifluoromethyl)benzamide]: the IC50 amounted to 0.21 µM.
In the case of `[2H]C([2H])([2H])Oc1cc(OC(F)(F)F)ccc1Oc1ccc(C(F)(F)F)c(F)c1C(=O)Nc1ccc(C)c(C(N)=O)c1` [Compound 145, N-(3-carbamoyl-4-methyl-phenyl)-2-fluoro-6-[2-(trideuteriomethoxy)-4-(trifluoromethoxy)phenoxy]-3-(trifluoromethyl)benzamide], the IC50 is 0.009 µM.
The same measure, in the same setting: under `CC(C)c1cc(Oc2ccc(OC(F)(F)F)c(F)c2)c(C(=O)Nc2ccc(F)c(C(N)=O)c2)cn1` [Compound 33, N-(3-Carbamoyl-4-fluoro-phenyl)-4-[3-fluoro-4-(trifluoromethoxy)phenoxy]-6-isopropyl-pyridine-3-carboxamide] stands 0.52 µM.
For the molecule `COc1nc(Cl)ccc1Oc1ccc(C(F)(F)F)c(F)c1C(=O)Nc1ccc(C(N)=O)c(F)c1` [Compound 67, N-(4-carbamoyl-3-fluoro-phenyl)-6-[(6-chloro-2-methoxy-3-pyridyl)oxy]-2-fluoro-3-(trifluoromethyl)benzamide], the IC50 worked out at 0.042 µM.
Regarding `COc1cc(OC(F)(F)F)ccc1Oc1cnc(C(F)(F)F)cc1C(=O)Nc1ccc(F)c(C(N)=O)c1` [Compound 68, N-(3-Carbamoyl-4-fluoro-phenyl)-5-[2-methoxy-4-(trifluoromethoxy)phenoxy]-2-(trifluoromethyl)pyridine-4-carboxamide], the IC50 stood at 0.021 µM.
On the same count and under the same terms, under `COc1cc(OC(F)(F)F)ccc1Oc1ccc(C(F)(F)F)c(F)c1C(=O)Nc1ccc(F)c(C(=O)N(C)C)c1` [Compound 95, N-[3-(dimethylcarbamoyl)-4-fluoro-phenyl]-2-fluoro-6-[2-methoxy-4-(trifluoromethoxy)phenoxy]-3-(trifluoromethyl)benzamide] stands 0.045 µM; under `CCOc1c(C(F)(F)F)ncc(Oc2ccc(OC(F)(F)F)cc2OC)c1C(=O)Nc1ccnc(C(N)=O)c1` [Compound 206, N-(2-Carbamoyl-4-pyridyl)-3-ethoxy-5-[2-methoxy-4-(trifluoromethoxy)phenoxy]-2-(trifluoromethyl)pyridine-4-carboxamide], 0.045 µM.
Consider `COc1cc(Oc2ccc(OC(F)(F)F)cc2)c(C(=O)Nc2ccc(F)c(C(N)=O)c2)c(F)c1C(F)(F)F` [Compound 216, N-(3-Carbamoyl-4-fluoro-phenyl)-2-fluoro-4-methoxy-6-[4-(trifluoromethoxy)phenoxy]-3-(trifluoromethyl)benzamide], for which the IC50 worked out at 0.008 µM.
As to `NC(=O)c1cc(NC(=O)c2c(Oc3ccc(OC(F)(F)F)c(F)c3)ccc(OC(F)(F)F)c2F)ccn1` [Compound 241, 4-[[2-fluoro-6-[3-fluoro-4-(trifluoromethoxy)phenoxy]-3-(trifluoromethoxy)benzoyl]amino]pyridine-2-carboxamide], the IC50 amounted to 0.038 µM.
Still for that read-out and setting: under `[2H]C([2H])([2H])Oc1cc(OC(F)(F)F)ccc1Oc1cc(OC(F)(F)F)cc(F)c1C(=O)Nc1ccc(C(N)=O)nc1` [Compound 173, 5-[[2-Fluoro-6-[2-(trideuteriomethoxy)-4-(trifluoromethoxy)phenoxy]-4-(trifluoromethoxy)benzoyl]amino]pyridine-2-carboxamide] stands 0.052 µM; under `[2H]C([2H])([2H])Oc1c(Oc2ccc(OC(F)(F)F)c(F)c2C(=O)Nc2cc(C(N)=O)ncc2C)ccc(OC(F)(F)F)c1F` [Compound 231, 4-[[2-Fluoro-6-[3-fluoro-2-(trideuteriomethoxy)-4-(trifluoromethoxy)phenoxy]-3-(trifluoromethoxy)benzoyl]amino]-5-methyl-pyridine-2-carboxamide], 0.009 µM; under `COc1nc(Cl)ccc1Oc1ccc(C(F)(F)F)c(F)c1C(=O)Nc1ccnc(C(N)=O)c1` [Compound 303, 4-(6-((6-chloro-2-methoxypyridin-3-yl)oxy)-2-fluoro-3-(trifluoromethyl)benzamido)picolinamide], 0.19 µM.
With `[2H]C([2H])([2H])Oc1cc(OC(F)(F)F)ccc1Oc1ccc(C(F)(F)F)c(F)c1C(=O)Nc1ccc(C(N)=O)cn1` [Compound 212, 6-[[2-Fluoro-6-[2-(trideuteriomethoxy)-4-(trifluoromethoxy)phenoxy]-3-(trifluoromethyl)benzoyl]amino]pyridine-3-carboxamide], the IC50 came out at 0.054 µM.
In the case of `COc1cc(OC(F)(F)F)ccc1Oc1cc(C(F)(F)F)cc(F)c1C(=O)Nc1ccc(F)c(C(N)=O)c1` [Compound 140, N-(3-Carbamoyl-4-fluoro-phenyl)-2-fluoro-6-[2-methoxy-4-(trifluoromethoxy)phenoxy]-4-(trifluoromethyl)benzamide], the IC50 is 0.005 µM.
Consider `NC(=O)c1cccc(NC(=O)c2c(Oc3ccc(OC(F)(F)F)cc3F)ccc(C(F)(F)F)c2F)c1` [Compound 89, N-(3-carbamoylphenyl)-2-fluoro-6-[2-fluoro-4-(trifluoromethoxy)phenoxy]-3-(trifluoromethyl)benzamide], for which the IC50 came out at 0.044 µM.
Turning to `COc1cc(OC(F)(F)F)ccc1Oc1cc(C(C)(C)C)ncc1C(=O)Nc1ccnc(C(N)=O)c1` [Compound 93, 6-tert-Butyl-N-(2-carbamoyl-4-pyridyl)-4-[2-methoxy-4-(trifluoromethoxy)phenoxy]pyridine-3-carboxamide], the IC50 came out at 0.063 µM.
`COc1cc(OC(F)(F)F)ccc1Oc1cc(C2C[C@@H]2C)ncc1C(=O)Nc1ccnc(C(N)=O)c1` (mixture of isomers) [Compound 109, Racemic trans-4-(4-(2-Methoxy-4-(trifluoromethoxy)phenoxy)-6-(2-methylcyclopropyl)nicotinamido)picolinamide]: the IC50 was 0.065 µM.
In the case of `COc1cc(OC(F)(F)F)ccc1Oc1cc2c(cc1C(=O)Nc1ccnc(C(N)=O)c1)OC(F)(F)O2` [Compound 121, 4-[[2,2-Difluoro-6-[2-methoxy-4-(trifluoromethoxy)phenoxy]-1,3-benzodioxole-5-carbonyl]amino]pyridine-2-carboxamide], the IC50 was 0.18 µM.
On to `COc1cc(OC(F)(F)F)ccc1Oc1cc(C2(C(F)(F)F)CC2)ncc1C(=O)Nc1ccnc(C(N)=O)c1` [Compound 119, N-(2-Carbamoyl-4-pyridyl)-4-[2-methoxy-4-(trifluoromethoxy)phenoxy]-6-[1-(trifluoromethyl)cyclopropyl]pyridine-3-carboxamide], for which the IC50 was 0.048 µM.
